Reference: PMC10050154, “Coenzyme A binding sites induce proximal acylation across protein families” (Scientific Reports, 2023)

Key:
[1] = biological target: T1, enoyl-CoA hydratase short chain 1 (ECHS1) (Homo sapiens, UniProt P30084); assay: LC-MS/MS (DIA) of site-specific lysine succinylation, dose-response; type: biochemical
T1 construct: recombinant, purified from E. coli, purchased from Novus Biologicals; homohexamer
T1 sequence (P30084 28-290): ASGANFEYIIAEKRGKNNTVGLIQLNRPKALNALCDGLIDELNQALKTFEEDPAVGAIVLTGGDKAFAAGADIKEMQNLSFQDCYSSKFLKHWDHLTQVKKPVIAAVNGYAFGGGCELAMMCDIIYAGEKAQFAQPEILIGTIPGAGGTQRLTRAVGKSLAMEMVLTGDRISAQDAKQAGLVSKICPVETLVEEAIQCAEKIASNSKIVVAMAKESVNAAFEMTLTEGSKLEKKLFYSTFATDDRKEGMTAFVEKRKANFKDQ

[2] = biological target: T1, enoyl-CoA hydratase short chain 1 (ECHS1); assay: LC-MS/MS of lysine acetylation; type: binding; settings: covalent (lysine acetylation at K282, K284, K204 near the CoA pocket)

Row | IC50 [1] [mM] | Compound | LC-MS/MS of lysine acetylation [2]
1 | 0.331 to 1.92 | CC(C)(COP(=O)(O)OP(=O)(O)OC[C@H]1O[C@@H](n2cnc3c(N)ncnc32)[C@H](O)[C@@H]1OP(=O)(O)O)[C@@H](O)C(=O)NCCC(=O)NCCS [CoA] | –
2 | – | CC(=O)SCCNC(=O)CCNC(=O)[C@H](O)C(C)(C)COP(=O)(O)OP(=O)(O)OC[C@H]1O[C@@H](n2cnc3c(N)ncnc32)[C@H](O)[C@@H]1OP(=O)(O)O [acetyl-CoA] | in ECHS1 induced by acetyl-CoA incubation was inhibited by a 25-molar excess of CoA
